Holding throughout (assay): NCI-60 cell line screen, 48 h
The test system of assay [1] is NCI-H23 lung.
The test system of assay [2] is SK-MEL-5 melanoma.
Assay [3] has as its system HL-60(TB) leukemia.
The test system of assay [4] is A498 renal.
In assay [5] the test system is UACC-62 melanoma.
Assay [6] has as its system OVCAR-8 ovarian.
Assay [7] relates to NCI-H460 lung.
Assay [8] concerns HCC-2998 colon.
The subject of assay [9] is NCI-H522 lung.

Experimental findings from PubChem BioAssay (NCI) are described below.

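Five compound concentrations were applied to cells in 96-well plates for 48 hours; endpoints were derived by simple linear interpolation of the resulting dose-response curve. GI50: concentration for 50% inhibition of growth. At the TGI there is no net growth.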

For `O=S1(=O)C=C(c2ccccc2)C(c2ccccc2)=C1`, the GI50 in assay [1] is 1.86 µM; in assay [2] it was 1.57 µM; in assay [3], 2.14 µM; in assay [4], 1.47 µM; in [5], 1.73 µM; in assay [6], 1.56 µM. The GI50 in assay [7] is 1.88 µM; in assay [8] it was 1.71 µM. Further, the TGI in assay [1] stood at 3.93 µM; in assay [2] it was 2.9 µM; in assay [3], 5.21 µM; in assay [4], 3.25 µM; in assay [5] it was 3.64 µM; in [6] it was 3.19 µM. The TGI is 4.23 µM in assay [7] and 3.16 µM in assay [8].
`CC(=O)N1CCN(C=S)CC1`: the TGI in assay [1], in [9], in assay [2], in assay [3], in [4] and in [5] was more than 100 µM throughout. The TGI in [6], in assay [7] and in [8] was more than 100 µM throughout.
For `C/C(=N\NS(=O)(=O)c1ccccc1)c1ccc[n+]([O-])n1`, the TGI in assay [1] was more than 100 µM; in assay [9] it was 79 µM; in assay [2], more than 100 µM; in [3], 69.9 µM; in assay [4], more than 100 µM; in [5] it was more than 100 µM. The TGI in assay [6], in [7] and in assay [8] was more than 100 µM throughout.
Consider `CCCCCCC(=O)CC(=O)C(=O)Nc1ccccc1C`, for which the TGI in [1], in [9], in assay [2], in [3], in assay [4] and in assay [5] was more than 100 µM in each case. The TGI in [6] is more than 100 µM; in [7], more than 81.2 µM; in [8], more than 100 µM.
Regarding `NC(C(=O)O)c1ccc(C(=O)O)cc1` (configuration not stated), the TGI in assay [1], in assay [9], in assay [2], in assay [3], in assay [5] and in assay [6] was more than 100 µM each time. For the same molecule, the TGI in assay [7] and in assay [8] was more than 100 µM in each case.
Turning to `CC1CC2(C)CC(=O)C1C1C(=O)N(CCN3CCOCC3)C(=O)C12` (configuration not stated), the GI50 in [1], in [9], in assay [2], in assay [3], in [4] and in [5] was more than 100 µM each time. In addition, the GI50 in assay [6] and in [8] was more than 100 µM in each case. The TGI in assay [1], in assay [9], in assay [2], in [3], in assay [4] and in assay [5] was more than 100 µM in each case. The TGI in assay [6] and in assay [8] was more than 100 µM throughout.
On to `Cc1ccc(SSCCCCS(=O)O)cc1`, for which the TGI amounted to 55.4 µM in assay [1]; 27.6 µM in assay [9]; 25.6 µM in assay [2]; 20.4 µM in assay [3]; 54.6 µM in assay [4]; 42.6 µM in assay [5]. The TGI in [7] is more than 100 µM; in [8] it was 66.3 µM.
Consider `N#CCCn1c(CCC(=O)Nc2ccc(Cl)cc2Cl)n[nH]c1=S`, for which the TGI in assay [1], in assay [9], in [2], in assay [3], in assay [4] and in assay [5] was more than 100 µM each time. Besides, the TGI in assay [6], in assay [7] and in assay [8] was more than 100 µM in each case.
As to `COc1ccc([Se]c2ccc(OC)cc2)cc1`, the TGI in [1], in assay [9], in assay [2], in assay [3], in assay [4] and in assay [5] was more than 100 µM in each case. Further, the TGI in [6], in assay [7] and in assay [8] was more than 100 µM in each case.
Take `Cc1ccccc1NC(=O)CC(=O)n1nc(-c2ccccc2)c(N=Nc2ccc([N+](=O)[O-])cc2)c1-c1ccccc1`: the TGI in [1] was more than 100 µM; in [9], 45.5 µM; in assay [2] it was 25.9 µM; in [3], 60.5 µM; in assay [5] it was 29.6 µM; in assay [6], more than 100 µM. Further, the TGI in [7] was more than 100 µM; in assay [8] it was 51.3 µM.
On to `NNC(=O)N/N=C1/C(=O)N(c2ccc(Cl)c(Cl)c2)C(=O)C(=O)C1c1nc2ccccc2o1` (configuration not stated), for which the TGI in assay [1], in assay [9], in assay [2], in assay [3], in [4] and in assay [5] was more than 100 µM each time. The TGI in assay [6] and in [8] was more than 100 µM each time.
Turning to `O=S1Cc2ccccc2CSS1` (configuration not stated), the TGI was 28.1 µM in [1]; 19.4 µM in assay [9]; 26.3 µM in assay [2]; 20 µM in [3]; more than 100 µM in assay [4]; 26.5 µM in [5]. For the same molecule, the TGI in assay [6] was 27.6 µM; in assay [7], 32.9 µM; in assay [8], 73.7 µM.
Regarding `CN(C)c1ccc(/C=c2\sc3nnc(Cc4ccccc4)n3c2=O)cc1`, the GI50 in [1], in assay [9], in assay [2], in assay [4], in assay [5] and in assay [6] was more than 100 µM each time. In addition, the GI50 in [7] is more than 100 µM. Moreover, the TGI is more than 100 µM in assay [1]; more than 100 µM in assay [9]; more than 100 µM in [2]; more than 10 µM in assay [3]; more than 100 µM in assay [4]; more than 100 µM in [5]. Moreover, the TGI in [6], in [7] and in assay [8] was more than 100 µM throughout.
Turning to `COC(=O)C(C(=O)C(=O)Nc1ccc(N)cc1[N+](=O)[O-])c1nc2ccc(Cl)cc2[nH]c1=O` (configuration not stated), the TGI in [1], in [2], in assay [3], in assay [4], in [5] and in assay [6] was more than 100 µM throughout. Further, the TGI in assay [7] and in assay [8] was more than 100 µM each time.
